According to paper PMC9797212, “Surface Modification of Erythrocytes with Lipid Anchors: Structure–Activity Relationship for Optimal Membrane Incorporation, in vivo Retention, and Immunocompatibility” (Advanced nanobiomed research, 2022):

Tests used:
[1] = set-up: species or system BALB/c mice; conditions: mouse
Procedure: Figure 6. Biodistribution and immune recognition of RBCs. A) RBCs labeled with DiR were injected in BALB/c mice and blood fluorescence was monitored with NIR scanner Li-COR Odyssey. […] D) Confocal microscopy images of fresh livers and spleens of mice injected with DiI-C18 and DiI-PEG3400Mtz (after in vivo labeling of blood vessels and nuclei with FITC-lectin and Hoechst). The lipid accumulates in extrasinusoidal cells in the spleen and predominantly in sinusoidal cells in the liver (i.e., endothelium and Kupffer cells). […] E) RBCs were incubated with fresh peritoneal macrophages for 24 h. […] F) Quantification of percent cells (per field) that contain intracellular DiI. G) Quantification of percent cells (per field) that contain DiI+ rosettes. P-value: ****0.0001; ***<0.001 2-sided t-test, alpha 0.05.

human RBCs = experiment: Labeling of human RBCs with lipids, flow cytometry; assay type: cell-based; conditions: lipids at 25 μM, 1 h; for percentage of labeled human RBCs (in words) / MFI of labeled human RBCs, fold higher than the rest of the lipids: flow cytometry
Source text: We acquired commercially available dialkyl indocarbocyanine lipids DiI-C18, DiI-C18:2, DiI-C16, DiI-C12 and synthesized additional headgroup derivatives of DiI-C18: DiI-amine, DiI-PEG5000, and DiI-PEG3400-methyltetrazine (Mtz). In addition, we prepared diacyl glycerol derivatives of Cy3: Cy3-C18, Cy3-C18:1, Cy3-C16, Cy3-C14, Cy3-C12, phospholipid derivative Cy3-distearoyl phosphatidylethanolamine (Cy3-DSPE), and Cy3-cholesterol. This library covers different lipid lengths, lipid types, and also headgroup-tail linkages. In addition, the library includes a limited number of headgroup derivatives relevant to drug delivery. Thus, PEGylated lipids have importance for erythrocyte PEGylation for blood camouflaging. Mtz is a click chemistry group that enables versatile modifications with biomolecules,[13] but also serves as a mimic of a small molecule payload (Mw 230 Da). To determine the labeling efficiency, we used fresh human RBCs from two healthy donors. RBCs were incubated with lipids at 25 μM for 1 h and washed and analyzed with flow cytometry for the percentage of labeled cells and mean fluorescence intensity (MFI). […] Select lipids were then used to label mouse RBCs. The data in Figure 2C,D show generally higher mouse RBC labeling efficiency (MFI and percent RBCs) than human RBCs. […] Finally, we checked the linearity of the Cy3 group signal when incorporated in RBCs.
Fresh human RBCs were obtained from discarded leukodepletion filters after processing sodium citrate anticoagulated donor blood at the Children’s Hospital Colorado Blood Donation Center. Institutional review board approval was not required for discarded material and anonymous samples. RBCs were eluted from leukodepletion filters by applying ACD buffer in the direction of the flow and were used within 2 h after blood collection. Sodium EDTA-anticoagulated mouse blood was collected from female or male BALB/c and NSG mice (8–10 weeks of age) via cardiac puncture, according to the animal protocol approved by the University of Colorado IACUC). Human RBCs were washed in ACD buffer and mouse RBC were washed in 1% BSA/PBS at room temperature at 3,000 g, total 3 times. Erythrocyte suspension (≈10^10/mL) was incubated with 25 μM lipids in ACD buffer (human RBCs) or 1% BSA/PBS (mouse RBCs) at 37 °C for 1 h and washed three times in ACD buffer or 1% BSA/PBS as described above. Labeling efficiency were determined by Guava easyCyte HT flow cytometer (Luminex Corp, Seattle, WA) as described later.

[2] = In vivo circulation of labeled RBCs and lipid retention, flow cytometry, BALB/c mice; conditions: for half-life: both sexes, mouse, whole blood (RBCs), iv, mono- or biexponential decay, summary value, read-out: MFI half life, estimated (extrapolated) terminal (converted)
Procedure: Next, we investigated in vivo retention and longevity of modified RBCs. We used the lipids with the highest labeling efficiency (Figure 2C,D) for in vivo studies: DiI-C18, DiI-C18:2, DiI-C12, Cy3-C12, DiI-PEG3400Mtz, Cy3-DSPE, and Cy3-cholesterol. Labeled RBCs were injected intravenously in BALB/c mice and the circulating levels (percent positive RBCs) and the stability of the lipid (MFI of the labeled population) were analyzed by flow cytometry (Figure 3A). Representative dot plots for DiI-C18 and DiI-C18:2 (Figure 3B) show a distinct population of labeled RBCs at both 1 min (between 9% and 13% of total RBCs) and 3 weeks postinjection. We found differences between lipids in terms of both percent RBC and percent MFI (Figure 3C,D). […] DiI-C18 RBCs had ≈40 days circulation span and only about 33% decrease in MFI at Day 20. […] Cy3-cholesterol RBCs had ≈30 days circulation span, but MFI dropped below 35% at Day 22.
The University of Colorado Institutional Animal Care and Use Committee (IACUC) approved animal experiments (protocol 103 913(11)1D). Mice were treated according to regulations provided by the Office of Laboratory Animal Resources at the University of Colorado. BALB/c and NOD/LtSz-SCID IL2Rγc null (NSG) mice were bred in-house. Mice of 8–10 weeks age (males and females) were used for experiments. Mice were injected intravenously with ≈10^9 RBCs (each strain was injected with RBCs derived from the same strain). At different time intervals, ≈20 μL of blood were obtained with heparinated haematocrit capillary (ThermoFisher) via periorbital plexus. RBCs were resuspended at ≈0.5 million mL^−1 in 1%BSA/PBS and analyzed by Guava easyCyte HT flow cytometer (20 000 RBCs were counted after gating out platelets and leukocytes). The percentage of positive RBCs and mean fluorescence intensity (MFI) of labeled RBCs (if more than 1% of total RBCs) was determined using FlowJo software v.10 (BD Life Sciences, Ashland, OR). For pharmacokinetic analysis, the flow data were normalized to 100% injected dose (MFI and percent labeled RBCs at 1 min) and fit into mono or biexponential decay using the pharmacokinetic modeling software Boomer.[21]

[3] = Lipid stability in RBCs in mouse serum in vitro; assay type: in vitro ADME, mouse (BALB/c serum); conditions: 3 h; for loss in MFI of labeled RBCs: 37 °C
Procedure: The nature of lipid linker affects in vivo retention. […] To compare the stability of different lipids in vitro, we measured the fluorescence of labeled RBCs after incubation in mouse serum for 3 h.
Mouse RBC labeled with lipids were incubated in mouse serum at 37 °C for up to 3 h. Intact RBCs were removed by centrifugation at 3000 g for 10 min at room temperature. RBCs were washed three times in 1% BSA/PBS to remove the remaining serum, and the labeling (MFI) was determined by flow cytometry as described above. The supernatant was analyzed for fluoresce released from RBC by dotting 2 μL on 0.45 μm nitrocellulose membrane and scanning with a Bio-Rad gel imager for Cy3 fluorescence at 540 nm excitation/560 nm emission. For TLC, 10 parts of methanol were added to 1 part of serum, and the tubes were centrifuged at 500 g for 10 min to pellet the protein fraction. The methanol phase was carefully collected, applied on TLC Silica Gel 60 F254 (EMD Millipore), and separated on the mobile phase chloroform: methanol (9:1) with 0.1% trifluoroacetic acid. The plates were scanned with a Bio-Rad gel imager for Cy3 fluorescence.

mouse RBCs = experiment: Labeling of mouse RBCs with lipids, flow cytometry; assay type: cell-based, mouse (BALB/c); conditions: lipids at 25 μM, 1 h
Source text: We acquired commercially available dialkyl indocarbocyanine lipids DiI-C18, DiI-C18:2, DiI-C16, DiI-C12 and synthesized additional headgroup derivatives of DiI-C18: DiI-amine, DiI-PEG5000, and DiI-PEG3400-methyltetrazine (Mtz). In addition, we prepared diacyl glycerol derivatives of Cy3: Cy3-C18, Cy3-C18:1, Cy3-C16, Cy3-C14, Cy3-C12, phospholipid derivative Cy3-distearoyl phosphatidylethanolamine (Cy3-DSPE), and Cy3-cholesterol. This library covers different lipid lengths, lipid types, and also headgroup-tail linkages. In addition, the library includes a limited number of headgroup derivatives relevant to drug delivery. Thus, PEGylated lipids have importance for erythrocyte PEGylation for blood camouflaging. Mtz is a click chemistry group that enables versatile modifications with biomolecules,[13] but also serves as a mimic of a small molecule payload (Mw 230 Da). […] RBCs were incubated with lipids at 25 μM for 1 h and washed and analyzed with flow cytometry for the percentage of labeled cells and mean fluorescence intensity (MFI). […]
Fresh human RBCs were obtained from discarded leukodepletion filters after processing sodium citrate anticoagulated donor blood at the Children’s Hospital Colorado Blood Donation Center. […] Labeling efficiency were determined by Guava easyCyte HT flow cytometer (Luminex Corp, Seattle, WA) as described later.

[4] = system: mouse peritoneal macrophages; experiment: Uptake of labeled RBCs by peritoneal macrophages; assay type: cell-based; conditions: 24 h incubation, fluorescent microscopy
Procedure: Fresh nonactivated macrophages were isolated and seeded in culture for 24 h in a 96-well culture-treated plate (Corning Inc.) as described.[19] On the next day, labeled RBCs were added (≈1 × 10^5 RBC/well) in triplicates, and macrophages were incubated for 24 h. In some experiments, PMF were prelabeled with 10 μM DiO for 2 h before addition of RBCs. After incubation, macrophages were washed with PBS 4 times to remove nonbound RBCs, fixed with 4% formalin, and stained with nuclear stain Hoechst. Cells were imaged under 100× magnification with Zeiss Axio Observer 5 epifluorescent microscope, and ≈7 microscopic fields were acquired. To verify RBC localization outside the cells, a Nikon Eclipse AR1HD inverted confocal microscope with 405, 488, 561, and 640 nm excitation lasers and corresponding emission filters was used. The percentage of DiI+ cells and rosette+ cells per field was determined manually and plotted with Prism.

[5] = set-up: method as in PMID 33532572; conditions: 48 h postinjection in mice ref 8a; cited from earlier work
[6] = Organ biodistribution of labeled RBCs (NIR imaging, confocal microscopy of liver and spleen); conditions: Day 40 (DiI-C18 RBCs), Day 29 (DiI-PEG3400Mtz RBCs)
Procedure: To determine the location of the label in the clearance organs, we imaged freshly excised livers and spleens of BALB/c mice injected with DiI-C18 RBCs and DiI-PEG3400Mtz RBCs (Day 40 and Day 29, respectively) with confocal microscope.
When labeled RBCs reached <1% of total RBCs (usually 10% or less of the injected dose), mice were injected with FITC-lectin and Hoechst and sacrificed with carbon dioxide (CO2) followed by cardiac perfusion. Fresh livers and spleens were placed on glass slides and imaged with Nikon Eclipse AR1HD inverted confocal microscope with Plan Apo 10 objective as described.[18]

Structure (SMILES) | percentage of labeled human RBCs (in words) (human RBCs) | circulation and retention of labeled RBCs (in words) ([2]; i.v., BALB/c) | loss in MFI of labeled RBCs [3] | MFI of labeled human RBCs, fold higher than the rest of the lipids (human RBCs) | half-life ([2]; BALB/c) | also measured
CCCCCCCCCCCCCCCCCCN1C(=CC=CC=CC=CC2=[N+](CCCCCCCCCCCCCCCCCC)c3ccccc3C2(C)C)C(C)(C)c2ccccc21.[I-] [DiR-C18, 1,1′-Dioctadecyl-3,3,3′,3′-Tetramethylindotricarbocyanine Iodide] | – | – | – | – | – | in vivo life span of labeled RBCs [1]: over 30 days; terminal half life of labeled RBCs ([1]; in vivo): 175 h
CCCCCCCCCCCCCC(=O)OCC(CNC(=O)CCCCC[N+]1=C(/C=C/C=C2/N(C)c3ccccc3C2(C)C)C(C)(C)c2ccccc21)OC(=O)CCCCCCCCCCCCC (stereo not drawn) [Cy3-C14] | highest percentage of labeled human RBCs | – | – | – | – | –
CCCCCCCCCCCC(=O)OCC(CNC(=O)CCCCC[N+]1=C(/C=C/C=C2/N(C)c3ccccc3C2(C)C)C(C)(C)c2ccccc21)OC(=O)CCCCCCCCCCC (stereo not drawn) [Cy3-C12] | highest percentage of labeled human RBCs | disappeared within a few days postinjection | less than 15% | – | – | drop in MFI of labeled RBCs ([2]; Day 3, 1 min postinjection = 100%): 85%
CCCCCCCCCCCCCCCCN1/C(=C/C=C/C2=[N+](CCCCCCCCCCCCCCCC)c3ccccc3C2(C)C)C(C)(C)c2ccccc21 [DiI-C16] | – | – | – | 2–3 fold | – | –
CCCCCCCCCCCCN1/C(=C/C=C/C2=[N+](CCCCCCCCCCCC)c3ccccc3C2(C)C)C(C)(C)c2ccccc21 [DiI-C12] | highest percentage of labeled human RBCs | – | less than 15% | 2–3 fold | 72 h | decrease in MFI of labeled RBCs (in words) ([2]; i.v., BALB/c): much faster decrease in MFI than DiI-C18 and Cy3-cholesterol; human RBC labeling efficiency (in words) (human RBCs): highest efficiency; mouse RBC labeling efficiency (in words) (mouse RBCs): highest efficiency
CC(C)CCCC(C)C1CCC2C3CC=C4CC(OC(=O)CCCCC[N+]5=C(C=CC=C6N(C)c7ccccc7C6(C)C)C(C)(C)c6ccccc65)CCC4(C)C3CCC12C (stereo not drawn) [Cy3-cholesterol] | – | longest circulation and retention | less than 15% | – | 300 h | MFI of labeled RBCs, percent of initial ([2]; Day 22, 1 min postinjection = 100%): below 35%
CCCCCCCCCCCCCCCCCC(=O)OC[C@H](COP(=O)(O)OCCNC(=O)CCCCC[N+]1=C(/C=C/C=C2/N(C)c3ccccc3C2(C)C)C(C)(C)c2ccccc21)OC(=O)CCCCCCCCCCCCCCCCC [Cy3-DSPE, Cy3-distearoyl phosphatidylethanolamine] | highest percentage of labeled human RBCs | disappeared within a few days postinjection | over 60% | 2–3 fold | – | human RBC labeling efficiency (human RBCs): 100%; TLC analysis of serum supernatant [3]: presence of intact Cy3-DSPE along with some degradation products; fluorescence released in serum from labeled RBCs, relative to DiI-C18 RBCs [3]: five times more fluorescence released in serum
CCCCCCCCCCCCCCCCCCN1/C(=C/C=C/C2=[N+](CCCCCCCCCCCCCCCCCC)c3ccccc3C2(C)C)C(C)(C)c2ccccc21 [DiI-C18] | – | longest circulation and retention | less than 15% | 2–3 fold | > 1920 h | macrophages with intracellular Cy3 fluorescence [4]: mostly intracellular uptake; lipid present in the RBC membrane [5]: up to 90%; decrease in MFI of labeled RBCs ([2]; Day 20, 1 min postinjection = 100%): about 33%; human RBC labeling efficiency (human RBCs): 28%; location of Cy3 signal in liver and spleen, confocal microscopy [6]: predominant accumulation of Cy3 signal in extrasinusoidal spleen cells and some accumulation in the liver sinusoids
CCCCCCCCCCCCCCCCCCN1/C(=C/C=C/C2=[N+](CCCCCCCCCCCCCCCCCC)c3ccc(CN)cc3C2(C)C)C(C)(C)c2ccccc21 [DiI-amine] | – | – | – | – | – | labeling efficiency of human RBCs, fold lower than the parent DiI-C18 (human RBCs): ≈ 4 fold
